According to patent publication US12448388B2, “PRMT5 inhibitors and uses thereof” (Gilead Sciences, Inc., priority 2023, dated 2025):

The compounds below were run on HCT116 MTAP-deleted cell lines (assay: Cell viability assay (CellTiter-Glo, 7 days), HCT116 MTAP-deleted). Settings: Homo sapiens, HCT-116; cell viability assay, HCT116 MTAP-deleted; class symbols; read-out: CC50.
Format: cell-based
Summary of the method: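 Read-out was CellTiter-Glo luminescence after a 7-day incubation (37 °C, 5% CO2) of HCT116 cells, MTAP-deleted or WT, on dose-response compound plates. CC50 values come from each line; where marked *, selectivity is overstated because poor solubility impaired the WT CC50 measurement.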
Compound `COC[C@H](c1ccc(C(F)(F)F)cc1)N(C)C(=O)c1cc2c(cc1F)nc(N)c1cncn12` [Ff-431, 4-amino-7-fluoro-N-[(1S)-2-methoxy-1-[4-(trifluoromethyl)phenyl]ethyl]-N-methyl-imidazo[1,5-a]quinoxaline-8-carboxamide] has a CC50 of 100 to 1000 nM.
`Nc1nc2cc(F)c(C(=O)N3CCCCC4Oc5cc(C(F)(F)F)ccc5C43)cc2n2cncc12` (stereo not drawn) [Ff-432, (4-amino-7-fluoro-imidazo[1,5-a]quinoxalin-8-yl)-[8-(trifluoromethyl)-2,3,4,5,5a,10b-hexahydrobenzofuro[3,2-b]azepin-1-yl]methanone] showed a CC50 of less than 100 nM.
`CN(Cc1ccc(OCC(F)(F)F)cc1)C(=O)c1cc2c(cc1F)nc(N)c1cncn12` [Ff-433, 4-amino-7-fluoro-N-methyl-N-[[4-(2,2,2-trifluoroethoxy)phenyl]methyl]imidazo[1,5-a]quinoxaline-8-carboxamide] was tested, and the CC50 was 100 to 1000 nM.
Compound `CN(C(=O)c1cc2c(cc1F)nc(N)c1cncn12)[C@@H]1CCc2cc([C@@H]3C[C@H]3C#N)ccc21` [Ff-434, Trans-4-amino-N-[(1R)-5-(2-cyanocyclopropyl)indan-1-yl]-7-fluoro-N-methyl-imidazo[1,5-a]quinoxaline-8-carboxamide] has a CC50 of less than 100 nM.
With `Cc1ncn2c1c(N)nc1cnc(C(=O)N(C)C3CCc4cc(C(F)(F)F)ccc43)cc12` (stereo not drawn) [Ff-435, 7-amino-N,5-dimethyl-N-[5-(trifluoromethyl)indan-1-yl]-2,4,8,11-tetrazatricyclo[7.4.0.02,6]trideca-1(13),3,5,7,9,11-hexaene-12-carboxamide] the CC50 was 100 to 1000 nM.
`CN(C(=O)c1cc2c(cn1)nc(N)c1cncn12)C1CCc2cc(C(F)(F)F)ccc21` (stereo not drawn) [Ff-436, 7-amino-N-methyl-N-[5-(trifluoromethyl)indan-1-yl]-2,4,8,11-tetrazatricyclo[7.4.0.02,6]trideca-1(13),3,5,7,9,11-hexaene-12-carboxamide] gave a CC50 of less than 100 nM.
Compound `CN(C(=O)c1cc2c(cc1F)nc(N)c1cncn12)[C@@H]1COc2cc(C#CC3(C(F)F)CCOCC3)ccc21` [Ff-437, (S)-4-amino-N-(6-((4-(difluoromethyl)tetrahydro-2H-pyran-4-yl)ethynyl)-2,3-dihydrobenzofuran-3-yl)-7-fluoro-N-methylimidazo[1,5-a]quinoxaline-8-carboxamide] has a CC50 of less than 100 nM.
In the case of `CN(C(=O)c1cc2c(cc1F)nc(N)c1cncn12)[C@@H]1COc2cc([C@@H]3C[C@H]3C#N)c(F)cc21` [Ff-438, Trans-4-amino-N-[(3S)-6-(2-cyanocyclopropyl)-5-fluoro-2,3-dihydrobenzofuran-3-yl]-7-fluoro-N-methyl-imidazo[1,5-a]quinoxaline-8-carboxamide], the CC50 was less than 100 nM.
For `CN(C(=O)c1cc2c(cc1F)nc(N)c1cncn12)[C@@H]1COc2cc(C#CC(C)(C)C#N)ccc21` [Ff-439, 4-amino-N-[(3S)-6-(3-cyano-3-methyl-but-1-ynyl)-2,3-dihydrobenzofuran-3-yl]-7-fluoro-N-methyl-imidazo[1,5-a]quinoxaline-8-carboxamide], the CC50 was less than 100 nM.
In the case of `CN(C(=O)c1cc2c(cc1F)nc(N)c1cncn12)[C@@H]1COc2cc(C#CC3(F)COC3)ccc21` [Ff-440, 4-amino-7-fluoro-N-[(3S)-6-[2-(3-fluorooxetan-3-yl)ethynyl]-2,3-dihydrobenzofuran-3-yl]-N-methyl-imidazo[1,5-a]quinoxaline-8-carboxamide], the CC50 was less than 100 nM.
Compound `CN(C(=O)c1cc2c(cc1F)nc(N)c1cncn12)[C@@H]1COc2cc(C#CC3(CC#N)CC3)ccc21` [Ff-441, 4-amino-N-[(3S)-6-[2-[1-(cyanomethyl)cyclopropyl]ethynyl]-2,3-dihydrobenzofuran-3-yl]-7-fluoro-N-methyl-imidazo[1,5-a]quinoxaline-8-carboxamide] has a CC50 of less than 100 nM.
`CN(C(=O)c1cc2c(cc1F)nc(N)c1cncn12)[C@@H]1COc2cc(C#CC(C)(C)O)ccc21` [Ff-442, 4-amino-7-fluoro-N-[(3S)-6-(3-hydroxy-3-methyl-but-1-ynyl)-2,3-dihydrobenzofuran-3-yl]-N-methyl-imidazo[1,5-a]quinoxaline-8-carboxamide] was tested, and the CC50 was less than 100 nM.
In the case of `CN(C(=O)c1cc2c(cc1Cl)nc(N)c1cncn12)[C@@H]1COc2cc([C@@H]3C[C@H]3C#N)c(F)cc21` [Ff-443, Trans-4-amino-7-chloro-N-[(3S)-6-(2-cyanocyclopropyl)-5-fluoro-2,3-dihydrobenzofuran-3-yl]-N-methyl-imidazo[1,5-a]quinoxaline-8-carboxamide], the CC50 was less than 100 nM.
In the case of `CN(C(=O)c1cc2c(cc1F)nc(N)c1cncn12)[C@@H]1COc2cc(C34CC(C3)C4)ccc21` [Ff-444, 4-amino-N-[(3S)-6-(1-bicyclo[1.1.1]pentanyl)-2,3-dihydrobenzofuran-3-yl]-7-fluoro-N-methyl-imidazo[1,5-a]quinoxaline-8-carboxamide], the CC50 was less than 100 nM.
Work on `CN(C(=O)c1cc2c(cc1F)nc(N)c1cncn12)[C@@H]1COc2cc(C#CC3(C#N)CC3)ccc21` [Ff-445, 4-amino-N-[(3S)-6-[2-(1-cyanocyclopropyl)ethynyl]-2,3-dihydrobenzofuran-3-yl]-7-fluoro-N-methyl-imidazo[1,5-a]quinoxaline-8-carboxamide] yielded a CC50 of less than 100 nM.
`CN(C(=O)c1cc2c(cc1F)nc(N)c1cncn12)[C@@H]1COc2cc(C#CC3(F)CCOC3)ccc21` (stereo partly drawn) [Ff-446, 4-amino-7-fluoro-N-[(3S)-6-[2-(3-fluorotetrahydrofuran-3-yl)ethynyl]-2,3-dihydrobenzofuran-3-yl]-N-methyl-imidazo[1,5-a]quinoxaline-8-carboxamide] showed a CC50 of less than 100 nM.
Compound `CN(C(=O)c1cc2c(cc1F)nc(N)c1cncn12)[C@@H]1COc2cc(C#CC(C)(C)F)ccc21` [Ff-447, 4-amino-7-fluoro-N-[(3S)-6-(3-fluoro-3-methyl-but-1-ynyl)-2,3-dihydrobenzofuran-3-yl]-N-methyl-imidazo[1,5-a]quinoxaline-8-carboxamide] has a CC50 of less than 100 nM.
Work on `N#C[C@@H]1C[C@H]1c1ccc2c(c1)C[C@H]1OCCN(C(=O)c3cc4c(cc3F)nc(N)c3cncn34)[C@@H]21` [Ff-448, Trans-2-[(4aS,9aR)-4-(4-amino-7-fluoro-imidazo[1,5-a]quinoxaline-8-carbonyl)-3,4a,9,9a-tetrahydro-2H-indeno[2,1-b][1,4]oxazin-7-yl]cyclopropanecarbonitrile] yielded a CC50 of less than 100 nM.
Work on `CN(C(=O)c1cc2c(cn1)nc(N)c1cncn12)[C@@H]1COc2cc(C34CC(C3)C4)ccc21` [Ff-449, 7-amino-N-[(3S)-6-(1-bicyclo[1.1.1]pentanyl)-2,3-dihydrobenzofuran-3-yl]-N-methyl-2,4,8,11-tetrazatricyclo[7.4.0.02,6]trideca-1(9),3,5,7,10,12-hexaene-12-carboxamide] yielded a CC50 of less than 100 nM.
In the case of `Cc1ncn2c1c(N)nc1cc(F)c(C(=O)N(C)[C@@H]3COc4cc([C@@H]5C[C@H]5C#N)c(F)cc43)cc12` [Ff-450, Trans-4-amino-N-[(3S)-6-(2-cyanocyclopropyl)-5-fluoro-2,3-dihydrobenzofuran-3-yl]-7-fluoro-N,3-dimethyl-imidazo[1,5-a]quinoxaline-8-carboxamide], the CC50 was less than 100 nM.
For `CN(C(=O)c1cc2c(cn1)nc(N)c1cncn12)[C@@H]1COc2cc(C34CC(C(F)F)(C3)C4)ccc21` [Ff-451, (S)-4-amino-N-(6-(3-(difluoromethyl)bicyclo[1.1.1]pentan-1-yl)-2,3-dihydrobenzofuran-3-yl)-N-methylimidazo[1,5-a]pyrido[3,4-e]pyrazine-8-carboxamide], the CC50 was less than 100 nM.
`Cc1ncn2c1c(N)nc1cnc(C(=O)N(C)[C@@H]3COc4cc(C56CC(C5)C6)ccc43)cc12` [Ff-452, (S)-4-amino-N-(6-(bicyclo[1.1.1]pentan-1-yl)-2,3-dihydrobenzofuran-3-yl)-N,3-dimethylimidazo[1,5-a]pyrido[3,4-e]pyrazine-8-carboxamide] gave a CC50 of less than 100 nM.
For `CN(C(=O)c1cc2c(cc1F)nc(N)c1cncn12)[C@@H]1COc2cc(C34CC(F)(C3)C4)ccc21` [Ff-453, 4-amino-7-fluoro-N-[(3S)-6-(3-fluoro-1-bicyclo[1.1.1]pentanyl)-2,3-dihydrobenzofuran-3-yl]-N-methyl-imidazo[1,5-a]quinoxaline-8-carboxamide], the CC50 was less than 100 nM.
`CN(Cc1ccn(-c2ccccc2)n1)C(=O)c1cc2c(cc1F)nc(N)c1cncn12` [Ff-454, 4-amino-7-fluoro-N-methyl-N-((1-phenyl-1H-pyrazol-3-yl)methyl)imidazo[1,5-a]quinoxaline-8-carboxamide] showed a CC50 of 100 to 1000 nM.
In the case of `CN(C(=O)c1cc2c(cc1F)nc(N)c1cncn12)[C@@H]1COc2c(Br)cccc21` [Ff-455, (S)-4-amino-N-(7-bromo-2,3-dihydrobenzofuran-3-yl)-7-fluoro-N-methylimidazo[1,5-a]quinoxaline-8-carboxamide], the CC50 was 100 to 1000 nM.
`CN(C(=O)c1cc2c(cc1F)nc(N)c1cncn12)C1CSc2ccccc21` (stereo not drawn) [Ff-456, 4-amino-N-(2,3-dihydrobenzo[b]thiophen-3-yl)-7-fluoro-N-methylimidazo[1,5-a]quinoxaline-8-carboxamide] showed a CC50 of 100 to 1000 nM.
Work on `CN(C(=O)c1cc2c(cc1F)nc(N)c1cncn12)[C@@H]1COc2ccc(Br)cc21` [Ff-457, (S)-4-amino-N-(5-bromo-2,3-dihydrobenzofuran-3-yl)-7-fluoro-N-methylimidazo[1,5-a]quinoxaline-8-carboxamide] yielded a CC50 of less than 100 nM.
`CN(C(=O)c1cc2c(cc1F)nc(N)c1cncn12)C1COc2ccc(C(F)(F)F)cc21` (stereo not drawn) [Ff-458, 4-amino-7-fluoro-N-methyl-N-(5-(trifluoromethyl)-2,3-dihydrobenzofuran-3-yl)imidazo[1,5-a]quinoxaline-8-carboxamide] showed a CC50 of less than 100 nM.
Compound `CN(C(=O)c1cc2c(cc1F)nc(N)c1cncn12)C1COc2cc3c(cc21)CCC3` (stereo not drawn) [Ff-459, 4-amino-7-fluoro-N-methyl-N-(3,5,6,7-tetrahydro-2H-indeno[5,6-b]furan-3-yl)imidazo[1,5-a]quinoxaline-8-carboxamide] has a CC50 of less than 100 nM.
For `Cc1cc2c(cc1Br)[C@H](N(C)C(=O)c1cc3c(cc1F)nc(N)c1cncn13)CO2` [Ff-460, (S)-4-amino-N-(5-bromo-6-methyl-2,3-dihydrobenzofuran-3-yl)-7-fluoro-N-methylimidazo[1,5-a]quinoxaline-8-carboxamide], the CC50 was less than 100 nM.
